Results from patent US20190328753A1, “COMPOSITIONS AND METHODS FOR TREATING OCULAR DISEASES” (priority 2015, published 2019).
Where “and” joins values, the source holds several entries; their conditions need not be identical. Equal values may be shown once. Entries after “also recorded” stand apart in the source; their conditions may differ.

What was measured:
[1] = test system: Corneal epithelial cells; test: Lipid production in corneal epithelial cells, dilutions of 3 mg/ml formulation, Oil Red O (Example 6); format: cell-based; conditions: ninth day
Experimental: Corneal epithelial cells were cultured in vitro and treated with 0.03 mg/ml and other dilutions of a 3 mg/ml formulation of Spironolactone (100× (0.03 mg/ml), 200× (0.015 mg/ml), 500× (0.006 mg/ml), and 1000× (0.003 mg/mI)). The corneal epithelial cells were cultured in vitro to about 10-20% confluence. The cell medium with added spironolactone was changed every 2-3 days. On the ninth day, the cells were stained for lipids with Oil Red O.

[2] = test system: Corneal epithelial cells; test: In vitro toxicity / cell morphology in corneal epithelial cells (Example 7); format: cell-based
Experimental: Corneal epithelial cells were cultured in vitro to about 30% confluence and treated with various dilutions of a 0.025 mg/mL spironolactone eye drop formulation (i.e. 50×, 100×, 500×, 1000×, and 5000×, corresponding to 0.0005 mg/ml, 0.00025 mg/ml, 0.00005 mg/ml, 0.000025 mg/ml, and 0.000005 mg/ml). The cell medium with spironolactone was changed every two days. On the seventh day, the cells were stained for lipids with Oil Red O.
Toxicity to cells was also taken into account. Toxicity in the context of this disclosure refers to any amount of cell death upon exposure to the composition. Little to no toxicity or relatively no toxicity refers to some amount of cell death to no cell death upon exposure to the composition. Alternatively or additionally, the morphology should look phenotypically normal for the cells. Toxicity can be measured quantitatively or qualitatively, in vivo or in vitro. Standard assays, such as an LDH (lactate dehydrogenase) assay, can be used to quantify toxicity of the compositions and to determine a TC50 concentration, i.e., a concentration that results in cell death for 50% of the cells upon exposure of the cells to that concentration. […] As such, a concentration of 0.025 mg/cc or lower appears to be safe. […] Compositions with lower amounts of active agent (e.g., 0.0000025 mg/cc) may be useful for maintaining a patient's condition, without subjecting the patient to long-term toxicity, for example, once the patient has been stabilized by treatment for some amount of time with a higher concentration.

[3] = test system: ELOVL4 gene expression; test: RT-PCR of ELOVL4 gene expression in HTCE cells (Example 9); format: cell-based, Human; conditions: 7th day; for ELOVL4 gene expression, induction: normalized
Experimental: HTCE cells were cultured in 6 well plates and grown to about 30% confluence. The cells were then treated with different dilutions of a 0.025 mg/ml Spironolactone eye drop formulation (i.e. 50×, 100×, 500×, 1000×, and 5000×, corresponding to 0.0005 mg/ml, 0.00025 mg/ml, 0.00005 mg/ml, 0.000025 mg/ml, and 0.000005 mg/ml). The medium with different concentrations of Spironolactone was changed every 2 days. On the 7th day, the cells were collected, and the RNA was extracted and subject to RT-PCR analysis for gene expression of ELOVL4, an enzyme involved in the biosynthesis of fatty acids (particularly very long chain fatty acids (VLCFAs)).

[4] = test system: patients with moderate to severe meibomian gland disease; test: Pilot study (Example 3): topical spironolactone ophthalmic suspension in MGD, retrospective pre-post
[5] = post-treatment, n=20, lissamine green, scale 0-3
[6] = post-treatment, n=20, scale 0-4
[7] = pre vs post-treatment, n=20, positive = score decrease, scale 0-4
[8] = pre-post change, n=20, scale 0-3
[9] = pre-post change, n=20, scale 0-4

CC(=O)SC1CC2=CC(=O)CCC2(C)C2CCC3(C)C(CCC34CCC(=O)O4)C12 (stereo not drawn) [spironolactone, 7α-acetylthio-3-oxo-17α-pregn-4-ene-21,17-carbolactone]
lipid production (Oil Red O) ([1]; 0.006 mg/ml (500× dilution)): enhanced lipid production | lipid production (Oil Red O) ([1]; 0.015 mg/ml (200× dilution)): enhanced lipid production | lipid production (Oil Red O) ([1]; 0.03 mg/ml (100× dilution)): enhanced lipid production | in vitro toxicity ([2]; 0.025 mg/ml): some in vitro toxicity | in vitro toxicity / cell morphology ([2]; 100× dilution (0.00025 mg/ml)): non confluence and some relative toxicity | in vitro toxicity / cell morphology ([2]; 500× dilution (0.00005 mg/ml)): confluent nontoxic cell morphology | in vitro toxicity / cell morphology ([2]; 1000× dilution (0.000025 mg/ml)): no in vitro toxicity; also recorded: confluent nontoxic cell morphology | in vitro toxicity / cell morphology ([2]; 5000× dilution (0.000005 mg/ml)): confluent nontoxic cell morphology | ELOVL4 gene expression, induction ([3]; 0.00025 mg/ml (100× dilution)): approximately 2 fold | ELOVL4 gene expression, induction ([3]; 0.0005 mg/ml (50× dilution)): approximately 4.5 fold | ELOVL4 gene expression ([3]; remaining treatment groups (0.00005, 0.000025, 0.000005 mg/ml)): no change relative to control | side effects after topical administration ([4]; patients of the pilot study): A small percentage of the patients reported a mild temporary burning sensation in the eye | Vision OD, Mean ([4]; post-treatment, n = 19): 0.069±0.051 log Mar units and 0.069 log Mar units | Schirmer's OD, Mean ([4]; post-treatment, n=20): 13.6 mm | Schirmer's OS, Mean ([4]; post-treatment, n=20): 14.6 mm | Vision OS, Mean ([4]; post-treatment, n=20): 0.063±0.032 log Mar units and 0.063 log Mar units | Conjunctival OD (Nasal), Mean [4, 5]: 0.83±0.189 and 0.83 | Conjunctival OD (Temporal), Mean [4, 5]: 0.55±0.181 and 0.55 | Conjunctival OS (Nasal), Mean [4, 5]: 0.60±0.148 and 0.60 | Conjunctival OS (Temporal), Mean [4, 5]: 0.40±0.134 and 0.40 | Keratitis OD Corneal, Mean [4, 5]: 0.050±0.050 and 0.050 | Keratitis OS Corneal, Mean [4, 5]: 0.20±0.156 and 0.20 | Anterior Blepharitis, Mean [4, 6]: 0.38±0.114 and 0.38 | Obstruction, Mean [4, 6]: 1.58±0.236 and 1.58 | Turbidity, Mean [4, 6]: 2.3±0.193 and 2.3 | Vascularity, Mean [4, 6]: 1.48±0.253 and 1.48 | Zone A, Mean [4, 6]: 3.125±0.188 and 3.125 | Subjective Global Assessment, Mean ([4]; post-treatment, n=20, scale 0-10): 4.6±0.534 and 4.6 | improvement of turbidity score, percent ([4]; pre vs post-treatment, n=20): 22.03% | improvement of zone A score, percent ([4]; pre vs post-treatment, n=20): 11.97% | mean improvement in anterior blepharitis score [4, 7]: 0.175±0.230 | mean improvement in obstruction score [4, 7]: 0.40±0.222 | mean improvement in turbidity score [4, 7]: 0.65±0.141 | mean improvement in vascularity score [4, 7]: 0.25±0.194 | mean improvement in zone A score [4, 7]: 0.425±0.186 | improvement in self-reported global assessment scores ([4]; pre vs post-treatment, n=20, positive = score decrease, scale 0-10): 1.4±0.597 | Vision OD (log Mar units), Change % ([4]; pre-post change, n = 19): 213.64% | Vision OD, mean change ([4]; pre-post change, n = 19): 0.047±0.043 log Mar units and 0.047 log Mar units | Anterior Blepharitis, Change % ([4]; pre-post change, n=20): −31.82% | Conjunctival OD (Nasal), Change % ([4]; pre-post change, n=20): −20.00% | Conjunctival OD (Temporal), Change % ([4]; pre-post change, n=20): −29.49% | Conjunctival OS (Nasal), Change % ([4]; pre-post change, n=20): −36.84% | Conjunctival OS (Temporal), Change % ([4]; pre-post change, n=20): 20.00% | Keratitis OD (Corneal), Change % ([4]; pre-post change, n=20): −50.00% | Keratitis OS (Corneal), Change % ([4]; pre-post change, n=20): 0.00% | Obstruction, Change % ([4]; pre-post change, n=20): −20.25% | Schirmer's OD (mm), Change % ([4]; pre-post change, n=20): −3.71% | Schirmer's OD, mean change ([4]; pre-post change, n=20): −0.525±1.496 mm and −0.525 mm | Schirmer's OS (mm), Change % ([4]; pre-post change, n=20): 1.75% | Schirmer's OS, mean change ([4]; pre-post change, n=20): 0.250±1.008 mm and 0.25 mm | Subjective Global Assessment, Change % ([4]; pre-post change, n=20): −23.33% | Turbidity, Change % ([4]; pre-post change, n=20): −22.03% | Vascularity, Change % ([4]; pre-post change, n=20): −14.45% | Vision OS (log Mar units), Change % ([4]; pre-post change, n=20): −7.20% | Zone A, Change % ([4]; pre-post change, n=20): −11.97% | Conjunctival OD (Nasal), Mean Change [4, 8]: −0.20±0.142 and −0.20 | Conjunctival OD (Temporal), Mean Change [4, 8]: −0.23±0.187 and −0.23 | Conjunctival OS (Nasal), Mean Change [4, 8]: −0.35±0.146 and −0.35 | Conjunctival OS (Temporal), Mean Change [4, 8]: 0.10±0.204 and 0.10 | Keratitis OD Corneal, mean change [4, 8]: −0.05±0.114 and −0.05 | Keratitis OS Corneal, mean change [4, 8]: 0.00±0.126 and 0.00 | Anterior Blepharitis, mean change [4, 9]: −0.175 | Obstruction, mean change [4, 9]: −0.4 | Turbidity, mean change [4, 9]: −0.65 | Vascularity, mean change [4, 9]: −0.25 | Zone A, mean change [4, 9]: −0.425 | Subjective Global Assessment, mean change ([4]; pre-post change, n=20, scale 0-10): −1.4
